Measurements: paper PMC12412453 (Toxicology, 2021)

Key:
[1] = system: primary human hepatocytes (PHHs); conditions: PHH, ref Seo et al., 2020, cited from earlier work; for Cytotoxicity: ATP assay, 24-h treatment; for Max. con.: maximum concentration
[2] = system: primary macaque hepatocytes (PMHs); test: Cytotoxicity by ATP assay; conditions: for Cytotoxicity / Max. con.: PMH, 24-h treatment; for Max. con.: maximum concentration
[3] = system: primary human hepatocytes (PHHs); conditions: ref Seo et al., 2020, cited from earlier work; for BMD50: PHH CometChip data reanalyzed using PROAST; for BMDL50–BMDU50: 90 % confidence interval of BMD50; for Potency ranking: rank by BMD50 among nine positive compounds
[4] = reported findings; ref References column of Table 1; cited from earlier work
[5] = reported findings; ref References column of Table 1; cited from earlier work; remark: listed apart in the source
[6] = reported findings; ref References column of Table 1; cited from earlier work; remark: listed apart in the source
[7] = system: primary macaque hepatocytes (PMHs); test: CometChip assay

Compound | Cytotoxicity [1] | Cytotoxicity ([2]; ATP assay) | DNA damage (ratio of %DNA in tail at highest concentration to vehicle control) ([3]; PHH) | Max. con. [1] | Genotoxicity assay findings in vitro [4] | Carcinogenicity [5] | Max. con. [2] | Genotoxicity assay findings in vivo [6] | also measured
COc1cc2c(c(OC)c1OC)-c1ccc(OC)c(=O)cc1[C@@H](NC(C)=O)CC2 [Colchicine] | + (11–30 %) | + (11–30 %) | – | – | – | – | – | – | –
CCCC(O)C(CC)CO (stereo not shown) [2-Ethyl-1,3-hexanediol] | + (11–30 %) | + (11–30 %) | − (The ratio ≤ 1.5-fold and p ≥ 0.05) | 10,000 μM | (+) for CA + S9; (−) for MLA, Hprt, MN, and SCE | (−) in dermal studies | 10,000 μM | – | –
O=[N+]([O-])c1cc[n+]([O-])c2ccccc12 [4-NQO, 4-nitroquinoline 1-oxide] | + (11–30 %) | + (11–30 %) | – | 5 µM | (+) for CA, MLA, Pig-a, comet | – | 7.5 µM | – | BMD50 [3]: 0.3 µM; BMDL50–BMDU50 ([3]; PHH): 0.1 to 0.6 µM; Potency ranking ([3]; PHH): 1
Cc1ccc(N)cc1N [2,4-DAT, 2,4-diaminotoluene] | + (11–30 %) | + (11–30 %) | ++ (2 < ratio ≤ 5) | 8000 µM | (+) for MLA, CA, MN, comet, and UDS; (−) for comet in HepaRG and Hprt | – | 8000 µM | (+) for UDS and comet; (+/−) for MN in BM | BMD50 [3]: 880.6 µM; BMDL50–BMDU50 ([3]; PHH): 489 to 1580 µM; Potency ranking ([3]; PHH): 9; LEC (lowest effective concentration) ([3]; PHH, lowest concentration positive in comet assay): 1414 µM; BMDU/BMDL ([3]; PHH): 3.2; BMD50 fold higher in PMHs than in PHHs (lower in PHHs) ([7]; CometChip BMD50, PMH vs PHH): 3.2 fold; BMDU/BMDL ([7]; PMH): 2.6; BMD50 ([7]; PMH CometChip data, PROAST exponential model): 2831 µM; DNA damage (ratio of %DNA in tail at highest concentration to vehicle control) ([7]; PMH, 24-h treatment): ++ (2 < ratio ≤ 5); LEC (lowest effective concentration) ([7]; PMH, 24-h treatment, lowest concentration positive in comet assay): 8000 µM; BMDL50–BMDU50 ([7]; PMH, 90 % confidence interval of BMD50): 1790 to 4660 µM; Potency ranking ([7]; PMH, rank by BMD50 among nine positive compounds): 9
Oc1cccc(O)c1 [Resorcinol] | ++ (31–50 %) | ++ (31–50 %) | − (The ratio ≤ 1.5-fold and p ≥ 0.05) | 2000 µM | – | (−) in rats and mice | 1000 µM | – | –
CCc1cc(C(N)=S)ccn1 [Ethionamide] | + (11–30 %) | + (11–30 %) | − (The ratio ≤ 1.5-fold and p ≥ 0.05) | 2000 µM | – | (−) in rats and mice | 2000 µM | (−) for comet | –
Nc1ccccc1C(=O)O [o-Anthranilic acid] | − (cytotoxicity of 0–10 %) | ++ (31–50 %) | − (The ratio ≤ 1.5-fold and p ≥ 0.05) | 5000 µM | – | – | 5000 µM | (−) for Pig-a, MN, CA, comet | cytotoxic effects (in words) ([2]; PMHs, ATP assay, 24-h exposure): cytotoxic effects over the same range of concentrations, but only in PMHs; DNA damage (ratio of %DNA in tail at highest concentration to vehicle control) ([7]; PMH, 24-h treatment): − (The ratio ≤ 1.5-fold and p ≥ 0.05)
COc1cc(/C=C/C(=O)CC(=O)/C=C/c2ccc(O)c(OC)c2)ccc1O [Curcumin] | + (11–30 %) | + (11–30 %) | – | 40 µM | – | – | 40 µM | – | –
